According to patent publication US5977133A, “Pyridone antibiotic with improved safety profile” (priority 1998, dated 1999):

Assays:
S. aureus (CiproS) = test: In vitro MIC, agar dilution; format: cell-based; details: S. aureus (CiproS), 21 isolates
S. aureus (CiproR) = test: In vitro MIC, agar dilution; format: cell-based; details: S. aureus (CiproR), 25 isolates
S. epidermidis (CiproS) = test: In vitro MIC, agar dilution; format: cell-based; details: S. epidermidis (CiproS), 23 isolates
S. epidermidis (CiproR) = test: In vitro MIC, agar dilution; format: cell-based; details: S. epidermidis (CiproR), 11 isolates
S. pneumoniae (PenS) = test: In vitro MIC, agar dilution; format: cell-based; details: S. pneumoniae (PenS), 20 isolates
S. pneumoniae (PenR) = test: In vitro MIC, agar dilution; format: cell-based; details: S. pneumoniae (PenR), 25 isolates
S. pneumoniae (CiproR) = test: In vitro MIC, agar dilution; format: cell-based; details: S. pneumoniae (CiproR), 3 isolates
S. pyogenes = test: In vitro MIC, agar dilution; format: cell-based; details: S. pyogenes, 21 isolates
E. faecium (CiproS) = test: In vitro MIC, agar dilution; format: cell-based; details: E. faecium (CiproS), 16 isolates
E. faecium (CiproR) = test: In vitro MIC, agar dilution; format: cell-based; details: E. faecium (CiproR), 2 isolates
E. faecalis (VanS) = test: In vitro MIC, agar dilution; format: cell-based; details: E. faecalis (VanS), 17 isolates
Enterococcus spp. (VanR) = test: In vitro MIC, agar dilution; format: cell-based; details: Enterococcus spp. (VanR), 21 isolates
E. coli = test: In vitro MIC, agar dilution; format: cell-based; details: 25 isolates
Description: (§1) Each plate was inoculated with 1:100 (or 1:10 for slow-growing strains, primarily Micrococcus and Streptococcus) dilutions of up to 32 different microorganisms, using a Steers replicator block calibrated to deliver approximately 10^4 colony forming units (CFU's). The inoculated plates were incubated at from about 35° C. to about 37 ° C. for approximately 20-24 hours. In addition, a control plate using BHI agar containing no test compound was prepared and incubated at the beginning and at the end of each test. The quinolone antibacterial ciprofloxacin was used as a control ("Cntl").
(§2) The numbers below the microorganism species indicate the nunbers of isolates tested. […] The MIC is defined as the lowest concentration of test compound yielding no growth (a slight haze or sparsely isolated colonies at the inoculum spot) as compared to the growth control containing no test compound.

Salmonella spp. = test: In vitro MIC, agar dilution; format: cell-based; details: 23 isolates
Description: as §1, §2

Klebsiella spp. = test: In vitro MIC, agar dilution; format: cell-based; details: Klebsiella spp., 29 isolates
C. freundii = test: In vitro MIC, agar dilution; format: cell-based; details: C. freundii, 20 isolates
P. mirabilis = test: In vitro MIC, agar dilution; format: cell-based; details: P. mirabilis, 20 isolates
Providencia spp. = test: In vitro MIC, agar dilution; format: cell-based; details: Providencia spp., 28 isolates
Enterobacter spp. = test: In vitro MIC, agar dilution; format: cell-based; details: Enterobacter spp., 35 isolates
P. aeruginosa (CiproS) = test: In vitro MIC, agar dilution; format: cell-based; details: P. aeruginosa (CiproS), 24 isolates
P. aeruginosa (CiproR) = test: In vitro MIC, agar dilution; format: cell-based; details: P. aeruginosa (CiproR), 20 isolates
B. fragilis = test: In vitro MIC, agar dilution; format: cell-based; details: B. fragilis, 18 isolates
C. difficile = test: In vitro MIC, agar dilution; format: cell-based; details: C. difficile, 10 isolates
C. perfringens = test: microbe, parasite or virus in culture; format: cell-based; details: C. perfringens, 13 isolates
H. influenzae = test: In vitro MIC, agar dilution; format: cell-based; details: H. influenzae, 18 isolates
M. catarrhalis = test: In vitro MIC, agar dilution; format: cell-based; details: M. catarrhalis, 18 isolates
Legionella spp. = test: microbe, parasite or virus in culture; format: cell-based
M. pneumoniae = test: In vitro MIC, agar dilution; format: cell-based; details: M. pneumoniae, 7 isolates
N. gonorrhoeae = test: In vitro MIC, agar dilution; format: cell-based; details: N. gonorrhoeae, 12 isolates
H. pylori = test: In vitro MIC, agar dilution; format: cell-based; details: H. pylori, 17 isolates
M. avium = test: In vitro MIC, agar dilution; format: cell-based; details: M. avium, 20 isolates
[1] = mice, single intraperitoneal injection, 21 days

In the case of `Cc1c(N2CC[C@H](N)C2)c(F)cn2c(=O)c(C(=O)O)cc(C3CC3)c12.Cl` [Example 3, 1-cyclopropyl-8-(3(S)-3-amino-1-pyrrolidinyl)-7-fluoro-9-methyl-4-oxo-4H-quinolizine-3-carboxylic acid hydrochloride], the “MIC Range” value (S. aureus (CiproS)) is reported as 0.015 to 0.06 µg/mL, the MIC50 (S. aureus (CiproR)) is reported as 0.25 µg/mL and the MIC90 (S. aureus (CiproR)) is reported as 0.5 µg/mL. The “MIC Range” value (S. aureus (CiproR)) was 0.06 to 2 µg/mL, the MIC50 (S. epidermidis (CiproS)) was 0.03 µg/mL and the MIC90 (S. epidermidis (CiproS)) was 0.06 µg/mL. The “MIC Range” value (S. epidermidis (CiproS)) was 0.015 to 0.06 µg/mL, the MIC50 (S. epidermidis (CiproR)) was 0.25 µg/mL and the MIC90 (S. epidermidis (CiproR)) was 1 µg/mL. The “MIC Range” value (S. epidermidis (CiproR)) was 0.25 to 2 µg/mL, the MIC50 (S. pneumoniae (PenS)) was 0.06 µg/mL and the MIC90 (S. pneumoniae (PenS)) was 0.12 µg/mL. For the same compound, the “MIC Range” value (S. pneumoniae (PenS)) was 0.06 to 0.12 µg/mL, the MIC50 (S. pneumoniae (PenR)) was 0.12 µg/mL and the MIC90 (S. pneumoniae (PenR)) was 0.12 µg/mL. For the same compound, the “MIC Range” value (S. pneumoniae (PenR)) was 0.06 to 0.12 µg/mL, the “MIC Range” value (S. pneumoniae (CiproR)) was 0.12 to 0.25 µg/mL and the MIC50 (S. pyogenes) was 0.03 µg/mL. For the same compound, the MIC90 (S. pyogenes) was 0.06 µg/mL, the “MIC Range” value (S. pyogenes) was 0.015 to 0.06 µg/mL and the MIC50 (E. faecium (CiproS)) was 0.5 µg/mL. The MIC90 (E. faecium (CiproS)) was 1 µg/mL, the “MIC Range” value (E. faecium (CiproS)) was 0.25 to 1 µg/mL and the “MIC Range” value (E. faecium (CiproR)) was 1 to 4 µg/mL. The MIC50 (E. faecalis (VanS)) was 0.25 µg/mL, the MIC90 (E. faecalis (VanS)) was 0.25 µg/mL and the “MIC Range” value (E. faecalis (VanS)) was 0.12 to 0.25 µg/mL. The MIC50 (Enterococcus spp. (VanR)) was 0.5 µg/mL, the MIC90 (Enterococcus spp. (VanR)) was 1 µg/mL and the “MIC Range” value (Enterococcus spp. (VanR)) was 0.12 to 4 µg/mL. The MIC50 (E. coli) was 0.03 µg/mL, the MIC90 (E. coli) was 0.06 µg/mL and the MIC50 (Salmonella spp.) was 0.06 µg/mL. For the same compound, the MIC90 (Salmonella spp.) was 0.06 µg/mL, the MIC50 (Klebsiella spp.) was 0.12 µg/mL and the MIC90 (Klebsiella spp.) was 0.12 µg/mL. For the same compound, the “MIC Range” value (Klebsiella spp.) was 0.015 to 0.5 µg/mL, the MIC50 (C. freundii) was 0.06 µg/mL and the MIC90 (C. freundii) was 0.25 µg/mL. The “MIC Range” value (C. freundii) was 0.015 to 0.25 µg/mL, the MIC50 (P. mirabilis) was 0.12 µg/mL and the MIC90 (P. mirabilis) was 0.25 µg/mL. For the same compound, the “MIC Range” value (P. mirabilis) was 0.06 to 0.25 µg/mL, the MIC50 (Providencia spp.) was 0.12 µg/mL and the MIC90 (Providencia spp.) was 0.25 µg/mL. The “MIC Range” value (Providencia spp.) was 0.03 to 1 µg/mL, the MIC50 (Enterobacter spp.) was 0.06 µg/mL and the MIC90 (Enterobacter spp.) was 0.12 µg/mL. The “MIC Range” value (Enterobacter spp.) was 0.03 to 0.5 µg/mL, the MIC50 (P. aeruginosa (CiproS)) was 0.25 µg/mL and the MIC90 (P. aeruginosa (CiproS)) was 1 µg/mL. The “MIC Range” value (P. aeruginosa (CiproS)) was 0.12 to 1 µg/mL, the MIC50 (P. aeruginosa (CiproR)) was 16 µg/mL and the MIC90 (P. aeruginosa (CiproR)) was 32 µg/mL. For the same compound, the “MIC Range” value (P. aeruginosa (CiproR)) was 16 to 64 µg/mL, the MIC50 (B. fragilis) was 0.25 µg/mL and the MIC90 (B. fragilis) was 0.5 µg/mL. For the same compound, the “MIC Range” value (B. fragilis) was 0.12 to 0.5 µg/mL, the MIC50 (C. difficile) was 0.25 µg/mL and the MIC90 (C. difficile) was 0.5 µg/mL. The “MIC Range” value (C. difficile) was 0.25 to 0.5 µg/mL, the MIC50 (C. perfringens) was 0.12 µg/mL and the MIC90 (C. perfringens) was 0.25 µg/mL. The “MIC Range” value (C. perfringens) was 0.06 to 0.25 µg/mL, the MIC50 (H. influenzae) was 0.015 µg/mL and the MIC90 (H. influenzae) was 0.03 µg/mL. For the same compound, the “MIC Range” value (H. influenzae) was 0.008 to 0.06 µg/mL, the MIC50 (M. catarrhalis) was 0.06 µg/mL and the MIC90 (M. catarrhalis) was 0.06 µg/mL. The “MIC Range” value (M. catarrhalis) was 0.015 to 0.06 µg/mL, the MIC50 (Legionella spp.) was 0.5 µg/mL and the MIC90 (Legionella spp.) was 1 µg/mL. For the same compound, the “MIC Range” value (Legionella spp.) was 0.5 to 1 µg/mL, the “MIC Range” value (M. pneumoniae) was 0.06 to 0.12 µg/mL and the MIC50 (N. gonorrhoeae) was 0.008 µg/mL. For the same compound, the MIC90 (N. gonorrhoeae) was 0.03 µg/mL, the “MIC Range” value (N. gonorrhoeae) was 0.008 to 0.06 µg/mL and the MIC50 (H. pylori) was 0.12 µg/mL. For the same compound, the MIC90 (H. pylori) was 0.25 µg/mL, the “MIC Range” value (H. pylori) was 0.06 to 0.5 µg/mL and the MIC50 (M. avium) was 4 µg/mL. The MIC90 (M. avium) was 16 µg/mL, the “MIC Range” value (M. avium) was 1 to 32 µg/mL and the LD50 [1] was 105.0 mg/kg.
